IC50 data for twelve compounds are collected here from patent US9334278B2, “Pyrrolo[2,3-B]pyrazines as SYK inhibitors” (Hoffmann-La Roche Inc., priority 2012, dated 2016).

For assay [1], the system named is Human B cell lymphoma cell line Ramos. The assay is described as follows: Ramos Calcium Influx FLIPR Assay. It counts as cell-based. To be noted: Ramos cells, anti-human IgM 10 μg/mL stimulation, read-out: RAMOS_IC50. The procedure: Ramos Calcium Influx FLIPR Assay
Human B cell lymphoma cell line Ramos was cultivated in RPMI-1640 with 10% Fetal Bovine Serum (Invitrogen). Cells were seeded into assay plate and loaded with calcium dye by adding 30 μl of dye loading buffer according to manufacturer's instruction (Beckton Dickinson Calcium Kit, Cat#80500). The cells were then treated with serial diluted compounds for 30 min before stimulation. Baseline fluorescence was recorded for about 20 seconds followed by stimulation with mouse anti-human IgM (10 μg/mL, clone M2E6, Antibody Solutions Inc.) for Ramos cells, and record of the maximal fluorescent counts in each well. Maximal counts divided by baseline counts, defined as fold change from baseline for each well, was used for IC50 calculation.

The test system of assay [2] is B cell CD69 up-regulation in human whole blood. Kind of assay: B Cell CD69 Up-Regulation Assay in Human Whole Blood. It counts as cell-based. To be noted: anti-human IgM 50 μg/mL for 20 h, CD69hi CD20+ B cells. The procedure:
B Cell CD69 Up-Regulation Assay in Human Whole Blood
Human Blood was collected from healthy volunteers into Vacutainers (BD Biosciences, San Jose, Calif.) containing sodium heparin. Test compound was suspended in DMSO and nine half-log serial dilutions were made. The concentration of […] in the assay was 0.5%. 100 μL whole blood was pre-incubated with compound for 30 min and then stimulated with goat F(ab′)2 anti-human IgM (50 μg/mL, Southern Biotech) for 20 h. At the end of the 20 hour incubation, samples were incubated with fluorochrome-conjugated antibodies, PE mouse anti-human CD20 and APC Mouse anti-human CD69 (BD Biosciences), for 30 minutes. Samples were then lysed with Lyse solution (BD) and washed with PBS containing 2% fetal bovine serum (FBS). Fluorescent signals were acquired on flow cytometer LSR II (BD) and data were analyzed by Flow Jo. The percentage of activated (CD69hi) B-cell lymphocytes (CD20+) were determined using un-stimulated (negative control) and stimulated (positive control) wells as reference guidelines. The percentage inhibition was calculated and an IC50 curve was constructed using GraphPad Prism software with sigmoidal curve fitting.

Assay [3] concerns the target recombinant human SYK360-635 (Spleen Tyrosine Kinase) (Homo sapiens (Human), UniProt P43405). Kind of assay: SYK kinase assay (33P filtration, IC50 of SYK inhibition). To be noted: read-out: ENZYME_FILTRATION_IC50; SYK 0.5 nM, ATP 20 μM, 33P filtration.
Method: Determination of IC50 of Spleen Tyrosine Kinase (SYK) inhibition:
SYK kinase assay is a standard kinase assay adapted to a 96 well plate format. This assay is performed in 96-well format for IC50 determination with 8 samples which represented 10 half log dilutions and a 40 μL reaction volume. The assay measures the incorporation of radiolabeled ^33P γATP into an N-terminally biotinylated peptide substrate, derived from naturally occurring phosphoacceptor consensus sequence (Biotin-11aa DY*E). Phosphorylated products were detected upon termination of reactions with EDTA and the addition of Streptavidin coated beads.
BSA: Bovine Serum Albumin Fraction V, fatty acid free (Roche Diagnostics GmbH, Cat. No. 9100221) diluted to a final concentration of 0.1%
Assay Dilution Buffer (ADB): 50 mM HEPES, 0.1 mM EGTA, 0.1 mM Na Vanadate, 0.1 mM (3-glycerophosphate, 10 mM MgCl2, 1 mM DTT, 0.1% BSA, pH 7.5
Bead wash buffer: 10 g/L PBS (Phosphate buffered saline) with 2M NaCl+1% phosphoric acid.
DMSO and the mixture was incubated for 10 min at RT.
The kinase reaction was initiated by the addition of 10 μL 4× substrate cocktail containing the DYE peptide substrate [0 or 5 μM], ATP [20 μM] and ^33PγATP [2 μCi/r×n]. After incubation at 30° C. for 15 min, the reaction was terminated by the transfer of 25 μL of the reaction sample to a 96 well 0.65 μm Millipore MADVNOB membrane/plate containing 200 μL 5 mM EDTA and 20% Streptavidine coated beads in PBS.
The unbound radionucleotides were washed under vacuum with 3×250 μL 2M NaCl; 2×250 μL 2M NaCl+1% phosphoric acid; 1×250 μL H2O. After the last wash membrane/plates were transferred to an adaptor plate, heat dried for 15 min at 60° C., and 50 μL scintillation cocktail was added to each well and 4 h later the amount of radioactivity was counted in a top counter.

As for `Cc1ccc(Nc2cnc3[nH]cc(C(=O)NC(C)(C)C)c3n2)cn1` [Compound I-6, N-tert-butyl-2-(6-methylpyridin-3-ylamino)-5H-pyrrolo[2,3-b]pyrazine-7-carboxamide], the IC50 in assay [1] came to 115 nM; in assay [2], 430 nM; in assay [3] it was 17.1 nM.

As to `Cc1ccc(Nc2cnc3[nH]cc(C(=O)NC(C)(C)C)c3n2)nc1` [Compound I-1, N-tert-butyl-2-(5-methylpyridin-2-ylamino)-5H-pyrrolo[2,3-b]pyrazine-7-carboxamide], the IC50 is 122 nM in assay [1], 627 nM in assay [2] and 8.5 nM in assay [3].

For `CC(N)c1cccc(Nc2cnc3[nH]cc(C(=O)NC(C)(C)C)c3n2)c1` (stereo not drawn) [Compound I-27, 2-(3-(1-aminoethyl)phenylamino)-N-tert-butyl-5H-pyrrolo[2,3-b]pyrazine-7-carboxamide], the results for the IC50 in assay [1], in assay [2] and in assay [3] were 223 nM, 631 nM and 18.8 nM, respectively.

In the case of `CCn1cc(Nc2cnc3[nH]cc(C(=O)NC(C)(C)C)c3n2)cn1` [Compound I-14, N-tert-butyl-2-(1-ethyl-1H-pyrazol-4-ylamino)-5H-pyrrolo[2,3-b]pyrazine-7-carboxamide], the figures for the IC50 in assay [1], in assay [2] and in assay [3] were 101 nM, 184 nM and 35.9 nM, respectively.

In the case of `Cn1ccc(Nc2cnc3[nH]cc(C(=O)NC(C)(C)C)c3n2)n1` [Compound I-3, N-tert-butyl-2-(1-methyl-1H-pyrazol-3-ylamino)-5H-pyrrolo[2,3-b]pyrazine-7-carboxamide], the IC50 was determined as 146 nM in assay [1], 204 nM in assay [2] and 21.1 nM in assay [3].

As for `Cn1cc(Nc2cnc3[nH]cc(C(=O)NC(C)(C)CO)c3n2)cn1` [Compound I-17, N-(1-hydroxy-2-methylpropan-2-yl)-2-(1-methyl-1H-pyrazol-4-ylamino)-5H-pyrrolo[2,3-b]pyrazine-7-carboxamide], the IC50 in assay [1] was found to be 207 nM; in assay [2], 193 nM; in assay [3], 49.9 nM.

`Cc1cc(Nc2nc3c(C(=O)NC(C)(C)C)c[nH]c3nc2C)sn1` [Compound I-36, 3-Methyl-2-(3-methyl-isothiazol-5-ylamino)-5H-pyrrolo[2,3-b]pyrazine-7-carboxylic acid tert-butylamide]: the IC50 in assay [1] came out at 1250 nM; in assay [2], 8300 nM; in assay [3], 251 nM.

Turning to `Cc1cc(Nc2cnc3[nH]cc(C(=O)NC(C)(C)C)c3n2)sn1` [Compound I-18, N-tert-butyl-2-(3-methylisothiazol-5-ylamino)-5H-pyrrolo[2,3-b]pyrazine-7-carboxamide], the IC50 is 78.9 nM in assay [1], 125 nM in assay [2] and 2 nM in assay [3].

Take `COc1ncc(Nc2cnc3[nH]cc(C(=O)NC(C)(C)C)c3n2)cn1` [Compound I-25, N-tert-butyl-2-(2-methoxypyrimidin-5-ylamino)-5H-pyrrolo[2,3-b]pyrazine-7-carboxamide]: the IC50 in assay [1] was 213 nM; in assay [2], 433 nM; in assay [3], 71.2 nM.

In the case of `Cn1ncc2c1CCCN2c1cnc2[nH]cc(C(=O)NC(C)(C)C)c2n1` [Compound I-33, N-tert-butyl-2-(1-methyl-6,7-dihydro-1H-pyrazolo[4,3-b]pyridin-4(5H)-yl)-5H-pyrrolo[2,3-b]pyrazine-7-carboxamide], the IC50 was determined as 791 nM in assay [1], 1460 nM in assay [2] and 167 nM in assay [3].

As to `Cn1cc(Nc2cnc3[nH]cc(C(=O)NC(C)(C)C)c3n2)cn1` [Compound I-5, N-tert-butyl-2-(1-methyl-1H-pyrazol-4-ylamino)-5H-pyrrolo[2,3-b]pyrazine-7-carboxamide], the IC50 in assay [1] worked out at 110 nM; in assay [2], 75.8 nM; in assay [3], 13.7 nM.

For `CC(C)(C)NC(=O)c1c[nH]c2ncc(Nc3ccc(S(C)(=O)=O)nc3)nc12` [Compound I-23, N-tert-butyl-2-(6-(methylsulfonyl)pyridin-3-ylamino)-5H-pyrrolo[2,3-b]pyrazine-7-carboxamide], the IC50 in assay [1] is 3620 nM; in assay [2] it was 630 nM; in assay [3], 117 nM.
